The values that follow come from ChEMBL document CHEMBL1201862, “PubChem BioAssay data set” (2004).

Molecules are shown by their SMILES.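 Tested at 5 concentrations; 48 h exposure; 96-well plates; endpoints linearly interpolated, else capped at highest concentration. GI50 = concentration required for 50% inhibition of growth.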 The source made the active and inactive calls. Cut-off read from the data, not from the text of the source: active = GI50 up to about 1.1 µM and inactive = higher.

Holding throughout (assay): NCI anticancer screen, dose series, 48 h
Assay [1] deals with A498.
Assay [2] deals with CAKI-1.
For assay [3], the system named is COLO 205.
Assay [4] concerns HCT-15.
For assay [5], the system named is HOP-92.
Assay [6] has as its system K562.
The test system of assay [7] is NCI-H522.
The test system of assay [8] is OVCAR-3.
Assay [9] concerns OVCAR-4.
Assay [10] deals with OVCAR-8.
The test system of assay [11] is PC-3.
The test system of assay [12] is SK-OV-3.
Assay [13] has as its system SN12C.
Assay [14] relates to SNB-75.
In assay [15] the test system is SW-620.
For assay [16], the system named is TK-10.
Assay [17] concerns KM12.
Assay [18] relates to NCI-H226.

As for `CCCCN(CCCC)CCC(O)c1cc2c(Cl)cc(Cl)cc2c2cc(C(F)(F)F)ccc12` (stereo not given), the GI50 was 3.59 µM (inactive) in assay [1]; 12.2 µM (inactive) in assay [2]; 10.8 µM (inactive) in assay [3]; 5.4 µM in assay [4]; 1.32 µM (inactive) in assay [5]; 6.73 µM (inactive) in assay [6]. Besides, the GI50 in assay [7] is 17.5 µM (inactive); in assay [8] it was 11.6 µM (inactive); in assay [9] it was 4.78 µM (inactive); in assay [10], 14.3 µM (inactive); in assay [11], 10.1 µM (inactive); in assay [12] it was 14 µM (inactive). The GI50 in assay [13] is 5.05 µM (inactive); in assay [14], 11.7 µM (inactive); in assay [15], 11.3 µM (inactive); in assay [16] it was 13.4 µM (inactive).
With `Nc1c2ccccc2nc2nccnc12`, the GI50 in assay [1] is > 100 µM (inactive); in [2], > 100 µM (inactive); in assay [3], > 100 µM (inactive); in [4], over 100 µM; in assay [5], > 100 µM (inactive); in assay [6] it was > 100 µM (inactive). Moreover, the GI50 in assay [17], in [18], in assay [7], in [8], in [9] and in assay [10] was > 100 µM (inactive) throughout. In addition, the GI50 in [12], in [13], in assay [14], in assay [15] and in assay [16] was > 100 µM (inactive) in each case.
Take `O=c1/c(=C/c2ccccc2[N+](=O)[O-])sc2nc3ccccc3n12`: the GI50 in [1] was 17.3 µM (inactive); in assay [2], > 73.1 µM (inactive); in assay [3], 26.6 µM (inactive); in assay [4] it was 17 µM; in assay [5], 32.1 µM (inactive); in assay [6], 40.8 µM (inactive). The GI50 in [17] was 34.7 µM (inactive); in assay [18], 22.9 µM (inactive); in assay [7], 35.4 µM (inactive); in assay [8] it was > 31.6 µM (inactive); in assay [9], > 46.5 µM (inactive); in [10] it was 38.9 µM (inactive). The GI50 was > 31.6 µM (inactive) in assay [12]; 44.1 µM (inactive) in assay [13]; 24.5 µM (inactive) in assay [14]; 24.1 µM (inactive) in assay [15]; > 46.5 µM (inactive) in [16].
Take `CC(=O)OCC1OC(n2c(=O)n(-c3ccccc3)c(=O)c3cc(Br)cc(Br)c32)C(OC(C)=O)C(OC(C)=O)C1OC(C)=O` (stereo not given): the GI50 in assay [1] was > 100 µM (inactive); in assay [2] it was 2.56 µM (inactive); in [3], > 100 µM (inactive); in [4], over 100 µM; in assay [5], > 100 µM (inactive); in [6], > 100 µM (inactive). Besides, the GI50 is > 100 µM (inactive) in assay [17]; > 100 µM (inactive) in assay [18]; > 100 µM (inactive) in assay [7]; > 100 µM (inactive) in assay [8]; 7.5 µM (inactive) in assay [9]; > 100 µM (inactive) in assay [10]. Besides, the GI50 is > 100 µM (inactive) in assay [12]; > 100 µM (inactive) in assay [13]; 74.1 µM (inactive) in assay [14]; > 100 µM (inactive) in [15]; > 100 µM (inactive) in [16].
Consider `Cc1ccccc1C1OC(=O)c2ccc3ccccc3c21` (stereo not given), for which the GI50 in assay [1] was 2.36 µM (inactive); in assay [2] it was 6.21 µM (inactive); in assay [3], 1.37 µM (inactive); in assay [4], 2.93 µM; in assay [5], 10.8 µM (inactive); in assay [6], 3.07 µM (inactive). In addition, the GI50 in assay [17] is 5.6 µM (inactive); in assay [18], 4.75 µM (inactive); in [7], 1.82 µM (inactive); in assay [8], 3.65 µM (inactive); in [9] it was 9.51 µM (inactive); in [10], 3.12 µM (inactive). In addition, the GI50 in assay [12] is 2.52 µM (inactive); in assay [13], 5.47 µM (inactive); in [14], 3.55 µM (inactive); in [15], 4.52 µM (inactive); in assay [16], 7 µM (inactive).
For the molecule `CSc1ccc(N2C(=O)C3c4[nH]c5ccccc5c4C4CCC(C(C)(C)C)CC4C3C2=O)cc1` (stereo not given), the GI50 was 17.8 µM (inactive) in assay [1]; 19.9 µM (inactive) in assay [2]; 10 µM (inactive) in assay [3]; 66.2 µM in [4]; 11.3 µM (inactive) in assay [5]; 15.9 µM (inactive) in [6]. The GI50 was 28.4 µM (inactive) in assay [17]; 19.1 µM (inactive) in assay [18]; 16.2 µM (inactive) in [7]; 41.2 µM (inactive) in assay [8]; 10.3 µM (inactive) in [9]; 12.1 µM (inactive) in assay [10]. The GI50 in [12] was 16.6 µM (inactive); in [13], 16.1 µM (inactive); in assay [14], 18.5 µM (inactive); in assay [15], 21.3 µM (inactive); in assay [16] it was 19.5 µM (inactive).
Turning to `NC(CNc1ccc(O)cc1)C(=O)O` (stereo not given), the GI50 in assay [1] is > 100 µM (inactive); in assay [2], 81.8 µM (inactive); in assay [3], > 100 µM (inactive); in assay [4] it was over 100 µM; in assay [5], > 100 µM (inactive); in [6], 89.1 µM (inactive). Further, the GI50 in assay [17] is > 100 µM (inactive); in assay [18], > 100 µM (inactive); in [7], > 100 µM (inactive); in [8], > 100 µM (inactive); in [9], 17.4 µM (inactive); in assay [10] it was > 100 µM (inactive). Besides, the GI50 in assay [12], in assay [13], in [14], in assay [15] and in assay [16] was > 100 µM (inactive) in each case.
Turning to `COC(=O)Cc1nc2ccccc2o1`, the GI50 was > 100 µM (inactive) in [1]; 37.9 µM (inactive) in [2]; 95.1 µM (inactive) in assay [3]; 33.3 µM in assay [4]; > 100 µM (inactive) in assay [5]; 32.4 µM (inactive) in assay [6]. The GI50 in [17] was 66.5 µM (inactive); in assay [18], > 100 µM (inactive); in assay [7], 40.1 µM (inactive); in assay [8], 69 µM (inactive); in assay [9] it was > 100 µM (inactive); in [10], 55.5 µM (inactive). The GI50 in [12] was > 100 µM (inactive); in assay [13], > 100 µM (inactive); in [14], > 100 µM (inactive); in assay [15] it was 95.1 µM (inactive); in [16], 46.2 µM (inactive).
Consider `N=C(N)NS(=O)(=O)c1ccc(NC(=O)c2cccc3c(Nc4ccc(S(N)(=O)=O)cc4)c4ccccc4nc23)cc1`, for which the GI50 in assay [1] was > 100 µM (inactive); in assay [2], > 100 µM (inactive); in assay [3] it was > 100 µM (inactive); in assay [4], over 100 µM; in [5], > 100 µM (inactive); in assay [6], > 100 µM (inactive). The GI50 in assay [17], in [7], in assay [8], in [9], in assay [10] and in assay [12] was > 100 µM (inactive) throughout. In addition, the GI50 in assay [13], in assay [14], in [15] and in assay [16] was > 100 µM (inactive) in each case.
As for `Brc1ccc2c(C3CN[C@@H](c4c[nH]c5cc(Br)ccc45)CN3)c[nH]c2c1` (stereo not given in full), the GI50 in [1] is 1.79 µM (inactive); in [2] it was 10.4 µM (inactive); in [3], 1.9 µM (inactive); in assay [4] it was 3.61 µM; in assay [5] it was 1.66 µM (inactive); in assay [6], 1.65 µM (inactive). The GI50 was 1.72 µM (inactive) in [17]; 2.13 µM (inactive) in [18]; 2.54 µM (inactive) in assay [7]; 6.03 µM (inactive) in assay [8]; 3.31 µM (inactive) in assay [9]; 4.23 µM (inactive) in [10]. Also, the GI50 in [12] was 6.14 µM (inactive); in [13], 5.25 µM (inactive); in assay [14], 16.1 µM (inactive); in [15], 2.48 µM (inactive); in [16], 8.04 µM (inactive).
`c1ccc(C2OC3(CCC[C@H]4C[C@H]43)O[C@H]2c2ccccc2)cc1` (stereo not given in full): the GI50 is > 100 µM (inactive) in [1]; 29.6 µM (inactive) in assay [2]; 24.7 µM (inactive) in [3]; 33.8 µM in assay [4]; 27.3 µM (inactive) in [5]; 22.7 µM (inactive) in assay [6]. The GI50 is 29 µM (inactive) in [17]; 26.2 µM (inactive) in assay [18]; 22.7 µM (inactive) in assay [7]; 37.4 µM (inactive) in [8]; 53.2 µM (inactive) in assay [9]; 48 µM (inactive) in assay [10]. For the same molecule, the GI50 in assay [12] was > 100 µM (inactive); in assay [13], 34.4 µM (inactive); in [14], 26.5 µM (inactive); in [15] it was 31.2 µM (inactive); in [16] it was > 100 µM (inactive).
Consider `CC1C=CC(O)[C@]2(CO)CC3(CCC12)OCCO3` (stereo not given in full), for which the GI50 in [1], in assay [2], in assay [5], in assay [6], in [17] and in assay [18] was > 100 µM (inactive) each time. In addition, the GI50 in assay [7], in assay [8], in assay [9], in assay [10], in assay [12] and in [13] was > 100 µM (inactive) each time. For the same molecule, the GI50 in [14], in [15] and in assay [16] was > 100 µM (inactive) throughout.
